The values below come from paper PMC9045377, “CpxA Phosphatase Inhibitor Activates CpxRA and Is a Potential Treatment for Uropathogenic Escherichia coli in a Murine Model of Infection” (Microbiology Spectrum, 2022).

Where “and” joins values, the source holds several entries; their conditions need not be identical. Equal entries are not always repeated. Where two headings read alike, the source gives them in different places.

The test system of data set [1] is E. coli CFT073 proteome. As to the kind of experiment: Label-free quantitative proteomics of CFT073 grown in human urine (LC-MS/MS). It counts as cell-based, Escherichia coli. The note with it: 150 μM, 5 h. The procedure: E. coli CFT073 and CFT073ΔcpxA::cat were cultured overnight at 37°C in 5 mL of LB medium overnight with shaking. Bacteria were pelleted, washed twice in PBS, and suspended in 1 mL of PBS. Cells were then suspended in 10 mL of filter-sterilized pooled human urine obtained from 4 healthy female volunteers as described ([41]) to an OD600 of ∼0.02. Urine containing CFT073 was treated either with 150 mM compound 26 dissolved in 10 μL of DMSO to reach a final concentration of 150 μM or 10 μL of DMSO; urine containing CFT073ΔcpxA::cat was treated with 10 μL of DMSO. After 5 h of incubation, cultures were split into 5-mL aliquots, centrifuged, and the pellets were washed once with PBS and frozen at −80°C. One pellet from 4 independent experiments was used to detect CpxR-P using a Phos-Tag gel and Western blotting with an anti-MBP-CpxR antibody obtained from Thomas Silhavy as previously described ([31]). Densitometry values were determined using Photoshop 2021 (version 22.4.3), and the ratio of CpxR-P to CpxR was analyzed by one-way ANOVA adjusted for multiple comparisons using the Tukey procedure.
For label-free quantitative proteomics, cell pellets from 5 independent experiments were subjected for protein extraction followed by liquid chromatography-tandem mass spectrometry (LC-MS/MS). Sample preparation for LC-MS/MS analysis and proteomics pipeline was followed as described previously ([42]). In brief, bacteria were pelleted from urine cultures, and the pellets were solubilized in 1 mL of 8 M urea lysis buffer. Equal amounts of proteins (100 μg) were subjected for overnight trypsin/LysC (V5071; Promega) digestion. One microgram of bovine serum albumin (BSA) was added to each sample as an internal control prior to in-solution digestion. LC-MS/MS analysis was performed on a Dionex UltiMate 3000 (Thermo Fisher Scientific) system connected to a Q-Exactive HF-X mass spectrometer (Thermo Fisher Scientific). Detail settings of the LC-MS/MS analysis was described previously ([42]).
Peptide spectrum matching of MS/MS spectra was searched against the UniProt E. coli CFT073-UPEC database (TaxID 199310) using the Sequest algorithm within Proteome Discoverer version 2.4 software (Thermo Fisher Scientific). The Sequest database search was performed with the following parameters: trypsin enzyme cleavage specificity, 2 possible missed cleavages, 10 ppm mass tolerance for precursor ions, 0.02 Da mass tolerance for fragment ions. Search parameters permitted dynamic modification of methionine oxidation (+15.9949 Da) and static modification of carbamidomethylation (+57.0215 Da) on cysteine. Peptide assignments from the database search were filtered to a 1% false discovery rate. The relative label-free quantitative and comparative among the samples were performed using the Minora algorithm and Proteome Discoverer 2.4 software. Differential abundance of proteins between conditions was defined as a 1.5-fold change in relative abundance with an adjusted P value of <0.05.

Data set [2] can be described thus: Pharmacokinetics of compound 6 in mice: plasma, urine, bladder, kidneys by HPLC-MS/MS. It counts as in vivo, female CBA/J mice. The note with it: for concentration at 52 h / concentration at 48 h: subcutaneous; for concentration at 52 h: 100 mg/kg s.c. once a day at 0, 24, 48 h; for concentration at 48 h: 100 mg/kg s.c. once a day, sample just prior to the 48-h injection. Here is the method: We developed a high-performance liquid chromatography-tandem mass spectrometry (HPLC-MS/MS) assay to measure compound 6 with a lower limit of quantification of 1 ng/mL. Single-dose PK parameters of compound 6 were determined in female CBA/J mice (n = 15) given 100 mg/kg s.c. dissolved in the vehicle. Blood was obtained from groups of 3 mice 1, 2, 4, 8, and 24 h postinjection.
As effective antimicrobials must achieve concentrations that exceed their MICs, we next determined whether compound 6 achieved plasma, kidney, bladder, and urinary concentrations in excess of its peak activating concentration of 10 μM in the CpxR reporter assay. […] Blood and urine samples were obtained just prior to the 48-h injection and at 52 h, 4 h after the final dose; we were only able to recover 2 urine samples at those time points. At 52 h, the animals were sacrificed, and tissue levels of compound 6 were determined in the bladder and kidneys. The mean peak and trough levels of compound 6 were 18.6 ± 3.2 μM and 9.6 ± 1.9 μM in the plasma and 344 μM and 151.7 μM in the urine, respectively. The mean tissue levels of compound 6 in the bladder and kidneys were 203 ± 28 μM and 48 ± 4 μM, respectively. Thus, compound 6 achieved levels in the urine, bladder, and kidneys that were ∼5- to 34-fold higher than its peak activating concentration.
Compound 6 was quantified by the IU Simon Comprehensive Cancer Center Clinical Pharmacology Analytical Core from mouse plasma and mouse urine using temazepam (TMP) as the internal standard and HPLC-MS/MS (5500 QTRAP; AB Sciex, Framingham, MA). In brief, compound 6 and TMP were separated by a gradient mobile phase (acetonitrile, 5 mM ammonium acetate) with a Restek Ultra C8 50 by 4.6 mm 5-micron column. The mass spectrometer utilized an electrospray ionization probe run in positive mode. The multiple reaction monitoring (MRM) Q1/Q3 (m/z) transitions for compound 6 and TMP were 187.9/146.0 and 301.1/254.9, respectively. Plasma or urine samples (20 μL) were transferred to glass culture tubes, TMP (20 μL of 0.1 ng/μL) was added as the internal standard, and the extraction was performed by the addition of 2 mL of methyl tertiary butyl ether. The samples were then vortexed, centrifuged, and the organic layer was transferred to a clean glass culture tube and evaporated to dryness. The samples were then reconstituted with 50 μL of the gradient mobile phase, and a 10-μL aliquot was injected to the HPLC-MS/MS. The standard curves were prepared using naive mouse plasma or naive mouse urine as the matched matrix and was linear from 1 to 1,000 ng/mL.
Compound 6 was quantified from the bladder and kidneys using a slightly modified method from the plasma sample analysis. Briefly, the tissue was weighed and then transferred to a polypropylene tube. Phosphate-buffered saline (PBS) (pH 7.4) was added to the tissue to bring the total volume to 0.5 mL (assumption 1 g = 1 mL). The tissue was homogenized using a TissueRuptor with a single use disposable probe. An aliquot (0.4 mL) was transferred to a clean polypropylene tube and temazepam (20 μL of 0.1 ng/μL) was added as the internal standard. The extraction procedure and HPLC-MS/MS conditions were the same as for the plasma samples. The standard curve was prepared using phosphate-buffered saline and was linear from 0.04 to 40 ng/sample.

Where [3] appears, read: threshold 1.5-fold, adjusted P <0.05.

Regarding `N[C@@H]1CCCc2c1[nH]c1cc(F)c(F)cc21` [compound 26], in data set [1], the “additional higher-abundance proteins vs CFT073 control only” value came to 27, the “additional higher-abundance proteins vs CFT073ΔcpxA::cat control only” value was 28, the “additional lower-abundance proteins vs CFT073 control only” value is reported as 12 and the “additional lower-abundance proteins vs CFT073ΔcpxA::cat control only” value is listed as 10. Besides, in data set [1] (setting [3]), the “number of higher abundance proteins vs both controls” value was determined as 42 and the “number of lower abundance proteins vs both controls” value was 53.

`NC1CCCc2c1[nH]c1ccc(F)cc21` (stereo not drawn) [compound 6]: the concentration at 52 h in data set [2] (female, CBA/J, mouse, bladder, at 52 h, read-out: mean tissue level in bladder) worked out at 203 ± 28 µM; in data set [2] (female, CBA/J, mouse, kidneys, at 52 h, read-out: mean tissue level in kidneys), 48 ± 4 µM; in data set [2] (female, CBA/J, mouse, plasma, sample at 52 h, read-out: mean peak level in plasma), 18.6 ± 3.2 µM; in data set [2] (female, CBA/J, mouse, urine, sample at 52 h, 2 samples, read-out: mean peak level in urine), 344 µM. The concentration at 24 h in data set [2] (female, CBA/J, mouse, plasma, sc, single dose 100 mg/kg s.c., read-out: plasma concentration at 24 h, mean ± SD) was 2390 ng/mL and 11.7 µM. The Tmax in data set [2] (female, CBA/J, mouse, plasma, sc, single dose 100 mg/kg s.c., read-out: time of peak plasma concentration) stood at 4 h. Also, the concentration at 48 h in data set [2] (female, CBA/J, mouse, plasma, read-out: mean trough level in plasma) was determined as 9.6 ± 1.9 µM; in data set [2] (female, CBA/J, mouse, urine, 2 samples, read-out: mean trough level in urine), 152 µM. The “peak plasma concentration, mean ± SD” value in data set [2] (single dose 100 mg/kg s.c., at 4 h, 100 mg/kg) was 3,305 ± 696 ng/mL and 16.2 ± 3.4 μM.
